The subject of assay [1] is H727 cells. As to the kind of experiment: Inhibition of KRas-mediated phosphorylation of ERK (Cisbio HTRF pERK), H727 cells. It counts as cell-based. Conditions: Homo sapiens; for IC50: NCI-H727, 3 h, 3 hr compound incubation; for inhibition at 0.1 µM: NCI-H727, single point at 100 nM, 3 hrs compound incubation.
Assay [2] concerns A549 cells. As to the kind of experiment: Inhibition of KRas-mediated phosphorylation of ERK (Cisbio HTRF pERK), A549 cells. It counts as cell-based. Conditions: Homo sapiens; for inhibition at 0.1 µM: single point at 100 nM, 3 hrs compound incubation; for IC50: A549, 3 h, 3 hr compound incubation. For orientation: In TR-FRET formats the signal depends on donor and acceptor labels being close together.

Assay [3] relates to HCT116 cells. As to the kind of experiment: Inhibition of KRas-mediated phosphorylation of ERK (Cisbio HTRF pERK), HCT116 cells. Format: cell-based. As to conditions: Homo sapiens; for inhibition at 0.1 µM: HCT-116, single point at 100 nM, 3 hrs compound incubation; for IC50: HCT-116, 3 h, 3 hr compound incubation.
Assay [4] deals with H358 cells. As to the kind of experiment: Inhibition of KRas-mediated phosphorylation of ERK (Cisbio HTRF pERK), H358 cells. As to conditions: Homo sapiens; for inhibition at 0.1 µM: NCI-H358, single point at 100 nM, 3 hrs compound incubation. It counts as cell-based.
Assay [5] relates to ASPC1 cells. As to the kind of experiment: Inhibition of KRas-mediated phosphorylation of ERK (Cisbio HTRF pERK), ASPC1 cells. It counts as cell-based. As to conditions: Homo sapiens, AsPC-1 cells; for IC50: ASPC1, 3 h, 3 hr compound incubation; for inhibition at 0.1 µM: ASPC1, single point at 100 nM, 3 hrs compound incubation.
The subject of assay [6] is H460 cells. As to the kind of experiment: Inhibition of KRas-mediated phosphorylation of ERK (Cisbio HTRF pERK), H460 cells. It counts as cell-based. Conditions: Homo sapiens; for inhibition at 0.1 µM: NCI-H460, single point at 100 nM, 3 hrs compound incubation; for IC50: NCI-H460, 3 h, 3 hr compound incubation.
The target of assay [7] is KRas G12V (Homo sapiens, UniProt P01116, G12V). As to the kind of experiment: biochemical. Conditions: Binding to KRas (IC50 nM) G12V.
Assay [8] concerns the target KRas G12R (Homo sapiens, UniProt P01116, G12R). As to the kind of experiment: biochemical. As to conditions: Binding to KRas (IC50 nM) G12R.
Assay [9] addresses KRas G12D (Homo sapiens, UniProt P01116, G12D). As to the kind of experiment: biochemical. As to conditions: Binding to KRas (IC50 nM) G12D.
The mark [10] stands for this setting: TR-FRET displacement, KRas G12V.
The mark [11] stands for this setting: TR-FRET displacement, KRas G12R.
The mark [12] stands for this setting: TR-FRET displacement, KRas G12D.

What is called IC50 is the point on the concentration scale where inhibition reaches its midpoint. Read a high IC50 as weaker potency in that assay. What is called inhibition is the change of the read-out against control, counted positive when it falls.

KRas G12R, sequence (P01116 1-169 isoform P01116-2 G12R): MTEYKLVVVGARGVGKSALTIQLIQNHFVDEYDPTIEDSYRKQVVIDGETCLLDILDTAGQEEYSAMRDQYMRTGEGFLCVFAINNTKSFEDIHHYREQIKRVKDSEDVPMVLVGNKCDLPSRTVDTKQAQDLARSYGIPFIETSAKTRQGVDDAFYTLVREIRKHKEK
KRas G12V, sequence (P01116 1-169 isoform P01116-2 G12V): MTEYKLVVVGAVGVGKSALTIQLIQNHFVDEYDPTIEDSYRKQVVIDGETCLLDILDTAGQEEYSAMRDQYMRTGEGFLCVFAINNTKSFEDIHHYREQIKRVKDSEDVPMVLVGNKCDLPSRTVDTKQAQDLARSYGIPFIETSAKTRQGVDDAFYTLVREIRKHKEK
KRas G12D, sequence (P01116 1-169 isoform P01116-2 G12D): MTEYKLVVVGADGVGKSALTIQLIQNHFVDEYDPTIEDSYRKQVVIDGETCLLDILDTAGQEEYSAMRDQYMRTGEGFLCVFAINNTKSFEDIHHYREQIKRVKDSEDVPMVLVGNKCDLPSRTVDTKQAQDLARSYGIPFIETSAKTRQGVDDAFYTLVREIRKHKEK

As to `CCc1c(F)ccc2cc(O)cc(N3CCc4c(nc(OC[C@@]56CCCN5C[C@H](F)C6)nc4N4CCOCC5(CCO5)C4)C3)c12` (stereo partly drawn) [Example 249, 5-ethyl-6-fluoro-4-(2-(((2R,7aS)-2-fluorohexahydro-1H-pyrrolizin-7a-yl)methoxy)-4-(1,6-dioxa-9-azaspiro[3.6]decan-9-yl)-5,6-dihydropyrido[3,4-d]pyrimidin-7(8H)-yl)naphthalen-2-ol], the figures for the IC50 in assay [1] (Cisbio pERK HTRF) and in [5] (Cisbio pERK HTRF) were 124 nM and 161 nM, respectively. Also, the inhibition at 0.1 µM amounted to 21% in assay [1]; 35% in assay [2]; 10% in assay [3]; 70% in assay [4]; 1% in [5]; 53% in assay [6].

`CCc1c(F)ccc2cc(O)cc(N3CCc4c(nc(OC[C@@]56CCCN5C[C@H](F)C6)nc4N4CCCn5nc(C(C(F)F)N(C)C)cc5C4)C3)c12` (stereo partly drawn) [Example 263, 4-(4-(2-(1-(dimethylamino)-2,2-difluoroethyl)-7,8-dihydro-4H-pyrazolo[1,5-a][1,4]diazepin-5(6H)-yl)-2-(((2R,7aS)-2-fluorotetrahydro-1H-pyrrolizin-7a(5H)-yl)methoxy)-5,8-dihydropyrido[3,4-d]pyrimidin-7(6H)-yl)-5-ethyl-6-fluoronaphthalen-2-ol]: the IC50 in assay [1] (Cisbio pERK HTRF) was found to be 8770 nM; in assay [7] (setting [10]), 295 nM; in assay [8] (setting [11]), 261 nM; in assay [9] (setting [12]) it was 109 nM; in assay [5] (Cisbio pERK HTRF) it was 5370 nM. The values for the inhibition at 0.1 µM in assay [3] and in assay [6] were -11% and -31%, respectively.

For the molecule `CCc1c(F)ccc2cc(O)cc(N3CCc4c(nc(OC[C@@]56CCCN5C[C@H](F)C6)nc4N4CCn5cncc5C4)C3)c12` [Example 279, 4-(4-(5,6-dihydroimidazo[1,5-a]pyrazin-7(8H)-yl)-2-(((2R,7aS)-2-fluorohexahydro-1H-pyrrolizin-7a-yl)methoxy)-5,6-dihydropyrido[3,4-d]pyrimidin-7(8H)-yl)-5-ethyl-6-fluoronaphthalen-2-ol], the IC50 in [1] (Cisbio pERK HTRF) is 5080 nM; in [7] (setting [10]) it was 22 nM; in assay [8] (setting [11]) it was 25 nM; in assay [9] (setting [12]) it was 93 nM; in assay [5] (Cisbio pERK HTRF) it was above 10000 nM. Besides, the inhibition at 0.1 µM in assay [3] was found to be 4%; in [6], 0%.

Take `CCc1c(F)ccc2cc(O)cc(N3CCc4c(nc(OC[C@@]56CCCN5C[C@H](F)C6)nc4N4CCCn5nc(N(C)S(N)(=O)=O)cc5C4)C3)c12` [Example 291, 7-(8-ethyl-7-fluoro-3-hydroxy-1-naphthyl)-2-(((2R,7aS)-2-fluorotetrahydro-1H-pyrrolizin-7a(5H)-yl)methoxy)-4-(2-((sulfamoyl)methylamino)-7,8-dihydro-4H-pyrazolo[1,5-a][1,4]diazepin-5(6H)-yl)-6,8-dihydro-5H-pyrido[3,4-d]pyrimidine]: the values for the IC50 in assay [7] (setting [10]), in [8] (setting [11]) and in [9] (setting [12]) were 21 nM, 20 nM and 8 nM, respectively. Further, the inhibition at 0.1 µM came out at 23% in assay [2], 12% in assay [3], 20% in [4] and 4% in assay [6].

On to `CCc1c(F)ccc2cc(O)cc(N3CCc4c(nc(OC[C@@]56CCCN5C[C@H](F)C6)nc4N4CC(=O)Nc5cc(Br)ccc5C4)C3)c12` [Example 319, 8-bromo-4-(7-(8-ethyl-7-fluoro-3-hydroxynaphthalen-1-yl)-2-(((2R,7aS)-2-fluorotetrahydro-1H-pyrrolizin-7a(5H)-yl)methoxy)-5,6,7,8-tetrahydropyrido[3,4-d]pyrimidin-4-yl)-1,3,4,5-tetrahydro-2H-benzo[e][1,4]diazepin-2-one], for which the IC50 was found to be 3360 nM in assay [1] (Cisbio pERK HTRF); 4620 nM in assay [7] (setting [10]); 6880 nM in assay [8] (setting [11]); 32800 nM in assay [9] (setting [12]); 7080 nM in assay [5] (Cisbio pERK HTRF). Further, the figures for the inhibition at 0.1 µM in [3] and in [6] were 8% and -10%, respectively.

In the case of `CCc1c(F)ccc2cc(O)cc(N3CCc4c(nc(OC[C@@]56CCCN5C[C@H](F)C6)nc4N4CCCCC(CC(=O)N(C)C)C4)C3)c12` (stereo partly drawn) [Example 345, 2-(1-(7-(8-ethyl-7-fluoro-3-hydroxynaphthalen-1-yl)-2-(((2R,7aS)-2-fluorohexahydro-1H-pyrrolizin-7a-yl)methoxy)-5,6,7,8-tetrahydropyrido[3,4-d]pyrimidin-4-yl)azepan-3-yl)-N,N-dimethylacetamide], the IC50 in assay [7] (setting [10]) was 4 nM; in assay [8] (setting [11]) it was below 2 nM; in assay [9] (setting [12]), 6 nM; in assay [5] (Cisbio pERK HTRF), 1640 nM. Moreover, the inhibition at 0.1 µM in assay [2] was 12%; in assay [3], 5%; in assay [4], 13%; in [6], -9%.

Consider `CCc1c(F)ccc2cc(O)cc(N3CCc4c(nc(OC[C@@]56CCCN5C[C@H](F)C6)nc4N4CCCn5nccc5C4)C3)c12` [Example 418, 4-(4-(7,8-dihydro-4H-pyrazolo[1,5-a][1,4]diazepin-5(6H)-yl)-2-(((2R,7aS)-2-fluorohexahydro-1H-pyrrolizin-7a-yl)methoxy)-5,6-dihydropyrido[3,4-d]pyrimidin-7(8H)-yl)-5-ethyl-6-fluoronaphthalen-2-ol], for which the IC50 in [1] (Cisbio pERK HTRF) is 193 nM; in assay [7] (setting [10]), below 2 nM; in assay [2] (Cisbio pERK HTRF), 236 nM; in assay [3] (Cisbio pERK HTRF), 787 nM; in assay [8] (setting [11]) it was 2 nM; in [9] (setting [12]), 3 nM. Moreover, the IC50 in [5] (Cisbio pERK HTRF) came to 117 nM; in [6] (Cisbio pERK HTRF), 375 nM.

Regarding `CCc1c(F)ccc2cc(OP(C)(C)=O)cc(N3CCc4c(nc(OC[C@@]56CCCN5C[C@H](F)C6)nc4N4CCCn5nc(NC)cc5C4)C3)c12` [Example 446, 5-ethyl-6-fluoro-4-(2-(((2R,7aS)-2-fluorohexahydro-1H-pyrrolizin-7a-yl)methoxy)-4-(2-(methylamino)-7,8-dihydro-4H-pyrazolo[1,5-a][1,4]diazepin-5(6H)-yl)-5,6-dihydropyrido[3,4-d]pyrimidin-7(8H)-yl)naphthalen-2-yl dimethylphosphinate], the inhibition at 0.1 µM in [1] came to 13%; in assay [3], 0%; in assay [5] it was 21%; in [6], 27%. Further, the IC50 in assay [7] was found to be 9 nM; in assay [8], 3 nM; in assay [9] it was 12 nM.

`CCc1c(F)ccc2cc(O)cc(N3CCc4c(nc(N5CC(C)(N)C5)nc4N4CCCC5(C4)NC(=O)NC5=O)C3)c12` (centres unmarked) [Example 488, 7-(2-(3-amino-3-methylazetidin-1-yl)-7-(8-ethyl-7-fluoro-3-hydroxynaphthalen-1-yl)-5,6,7,8-tetrahydropyrido[3,4-d]pyrimidin-4-yl)-1,3,7-triazaspiro[4.5]decane-2,4-dione]: the IC50 is 7510 nM in assay [1] (Cisbio pERK HTRF); 9 nM in assay [7] (setting [10]); 13 nM in assay [8] (setting [11]); 20 nM in assay [9] (setting [12]); above 10000 nM in [5] (Cisbio pERK HTRF). Also, the inhibition at 0.1 µM was 5% in assay [1], -1% in assay [3], 13% in assay [5] and 14% in assay [6].

With `CCc1c(F)ccc2cc(O)cc(N3CCc4c(nc(OC[C@@]56CCCN5C[C@H](F)C6)nc4N4CCCn5nc(C(=O)N6CC[C@H]7CC[C@@H]6C7)cc5C4)C3)c12` [Example 617, ((1R,5R)-2-azabicyclo[3.2.1]octan-2-yl)(5-(7-(8-ethyl-7-fluoro-3-hydroxynaphthalen-1-yl)-2-(((2R,7aS)-2-fluorotetrahydro-1H-pyrrolizin-7a(5H)-yl)methoxy)-5,6,7,8-tetrahydropyrido[3,4-d]pyrimidin-4-yl)-5,6,7,8-tetrahydro-4H-pyrazolo[1,5-a][1,4]diazepin-2-yl)methanone], the IC50 turned out to be 15 nM in assay [1]; 27 nM in [2]; 115 nM in [3]; 8 nM in [4] (NCI-H358, 3 h, 3 hr compound incubation); 13 nM in assay [5]; 40 nM in [6].

Source of the values: US20250368649A1, “TETRAHYDROPYRIDOPYRIMIDINE PAN-KRAS INHIBITORS” (Mirati Therapeutics, Inc., priority 2022, published 2025).
